The record followed here is patent US20260001928A1 (CORTERIA PHARMACEUTICALS, priority 2022, published 2026).

*1 amine or outer side, *2 acyl side, *3 side chain or, on linkers, in order; H or OH if unused. Where a SMILES comes first, the peptide text is derived from it. Side-chain parts run from the residue outwards. [ ]: non-standard residue; d: D form. The star is where a group is joined. C20 diacid = O=C(O)CCCCCCCCCCCCCCCCCCC(=O)*; C16 diacid = O=C(O)CCCCCCCCCCCCCCC(=O)*; γGlu = O=C(O)[C@H](CCC(=O)[*:2])N[*:1]; AEEA = NCCOCCOCC(=O)O; Aib = CC(C)(N)C(=O)O A value given as a limit tells only on which side of the number the result lay.

The target of one assay is T1, human CRF2a receptor (Homo sapiens, UniProt Q13324).
T1 construct: expressed in transfected cells; host or cells: TeloHEAC cells
T1 sequence (Q13324 1-411): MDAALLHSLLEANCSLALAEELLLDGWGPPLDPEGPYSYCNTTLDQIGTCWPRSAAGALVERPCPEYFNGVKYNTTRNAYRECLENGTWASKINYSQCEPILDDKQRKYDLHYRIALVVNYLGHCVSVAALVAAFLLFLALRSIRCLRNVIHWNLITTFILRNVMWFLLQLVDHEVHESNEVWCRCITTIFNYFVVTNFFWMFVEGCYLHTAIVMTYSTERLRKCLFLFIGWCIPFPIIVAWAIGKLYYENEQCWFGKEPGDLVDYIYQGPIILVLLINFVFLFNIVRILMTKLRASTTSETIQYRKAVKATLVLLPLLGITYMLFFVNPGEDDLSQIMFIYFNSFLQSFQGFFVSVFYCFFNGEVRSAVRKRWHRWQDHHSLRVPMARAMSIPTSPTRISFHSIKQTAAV
Nature of the assay: Activity at human CRF2a receptor, cAMP functional assay in TeloHEAC cells. It is filed as cell-based. The settings on record: TeloHEAC cells stably expressing human CRF2a receptor, relative to urocortin 2 (100 nM = 100%). The method, boiled down: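 TeloHEAC cells stably expressing human CRF2a (10000 cells/well, suspended in HBSS/20 mM HEPES with 2 mM IBMX) were exposed to compounds for 30 min at 37 °C. cAMP was read as the 665/620 nm fluorescence ratio after 1 h at room temperature. EC50 was derived relative to 100 nM urocortin 2, set as 100%.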

For the next assay, the target named is T2, CFR1R receptor (Homo sapiens, UniProt P34998).
T2 construct: host or cells: CHO-K1 (clone 2)
T2 sequence (P34998 24-415): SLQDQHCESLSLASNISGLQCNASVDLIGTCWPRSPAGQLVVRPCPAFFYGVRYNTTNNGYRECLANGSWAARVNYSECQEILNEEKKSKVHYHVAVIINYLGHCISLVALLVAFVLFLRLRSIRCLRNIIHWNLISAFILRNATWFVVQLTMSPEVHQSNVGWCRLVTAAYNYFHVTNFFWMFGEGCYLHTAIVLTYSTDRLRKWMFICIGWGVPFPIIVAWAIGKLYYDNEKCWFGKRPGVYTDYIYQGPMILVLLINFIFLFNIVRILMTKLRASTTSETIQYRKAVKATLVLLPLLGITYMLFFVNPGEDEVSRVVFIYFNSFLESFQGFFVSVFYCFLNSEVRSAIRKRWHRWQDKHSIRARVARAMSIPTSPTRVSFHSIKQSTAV
As to the kind of experiment: Activity at anti-target CFR1R receptor, cAMP assay in CRF1R-overexpression CHO-K1 cells. It is filed as cell-based. The settings on record: 100% = Sauvagine at 100 nM. The method, boiled down:
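cAMP readout in CRF1R-overexpressing CHO-K1 cells (clone 2), run as for the TeloHAEC assay at 4000 cells/well final. Cells came from cryopreserved banks. Sauvagine at 100 nM defined 100% activation.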

In the case of `CC[C@H](C)[C@H](NC(C)=O)C(=O)N[C@H](C(=O)N[C@@H](CC(C)C)C(=O)N[C@@H](CO)C(=O)N[C@@H](CC(C)C)C(=O)N[C@@H](CC(=O)O)C(=O)N[C@@H](C(=O)N1CCC[C@H]1C(=O)N[C@H](C(=O)N[C@@H](CCCCN)C(=O)N[C@@H](CC(C)C)C(=O)N[C@@H](CCCCNC(=O)COCCOCCNC(=O)COCCOCCNC(=O)CC[C@H](NC(=O)CCCCCCCCCCCCCCCCCCC(=O)O)C(=O)O)C(=O)N[C@@H](CCCCN)C(=O)N[C@H](C(=O)N[C@@H](CC(C)C)C(=O)N[C@@H](CC(C)C)C(=O)N[C@@H](CCC(=O)O)C(=O)N[C@@H](CCC(N)=O)C(=O)N[C@@H](CCC(=O)O)C(=O)N[C@@H](CCCCN)C(=O)N[C@@H](CCC(N)=O)C(=O)N[C@@H](CCCCN)C(=O)N[C@@H](C)C(=O)N[C@@H](CCC(N)=O)C(=O)N[C@@H](CCCNC(=N)N)C(=O)N[C@@H](CCC(=O)O)C(=O)N[C@@H](CCC(N)=O)C(=O)N[C@@H](C)C(=O)N[C@@H](CCC(=O)O)C(=O)N[C@H](C(=O)N[C@@H](CC(N)=O)C(=O)NC(C)(C)C(=O)N[C@@H](CCC(N)=O)C(=O)N[C@H](C(=O)N[C@@H](CC(C)C)C(=O)N[C@@H](C)C(=O)N[C@@H](CCC(N)=O)C(=O)N[C@H](C(N)=O)C(C)C)[C@@H](C)CC)[C@@H](C)O)[C@@H](C)CC)[C@@H](C)CC)C(C)C)C(C)C` [compound 240] (Ac-IVLSLD[dV]PIKLK([AEEA-AEEA-γGlu-C20 diacid])KILLEQEKQKAQREQAETN[Aib]QILAQV-NH2), the EC50 (as a rule, the midpoint of the concentration-response curve) was 0.22 nM on human CRF2a receptor and greater than 250 nM on CFR1R receptor (cAMP). Moreover, at CFR1R receptor, the “Emax (% I)” value worked out at 4 % I.

Take `CC[C@H](C)[C@H](N)C(=O)N[C@H](C(=O)N[C@@H](CC(C)C)C(=O)N[C@@H](CO)C(=O)N[C@@H](CC(C)C)C(=O)N[C@@H](CC(=O)O)C(=O)N[C@@H](C(=O)N1CCC[C@H]1C(=O)N[C@H](C(=O)N[C@@H](CCCCN)C(=O)N[C@@H](CC(C)C)C(=O)N[C@@H](CCCCNC(=O)CC[C@H](NC(=O)CCCCCCCCCCCCCCC(=O)O)C(=O)O)C(=O)N[C@@H](CCC(N)=O)C(=O)N[C@H](C(=O)N[C@@H](CC(C)C)C(=O)N[C@@H](CC(C)C)C(=O)N[C@@H](CCCCN)C(=O)N[C@@H](CCC(N)=O)C(=O)N[C@@H](CCC(=O)O)C(=O)N[C@@H](CCCNC(=N)N)C(=O)N[C@@H](CCC(N)=O)C(=O)N[C@@H](CCCCN)C(=O)N[C@@H](CCCCN)C(=O)N[C@@H](CCC(N)=O)C(=O)N[C@@H](CCCNC(=N)N)C(=O)N[C@@H](CCC(=O)O)C(=O)N[C@@H](CCC(N)=O)C(=O)N[C@@H](C)C(=O)N[C@@H](CCC(=O)O)C(=O)N[C@@H](CCCCN)C(=O)N[C@@H](CC(N)=O)C(=O)N[C@@H](CCCCN)C(=O)N[C@@H](CCC(N)=O)C(=O)N[C@H](C(=O)N[C@@H](CC(C)C)C(=O)N[C@@H](CCC(=O)O)C(=O)N[C@@H](CCC(N)=O)C(=O)N[C@H](C(N)=O)C(C)C)[C@@H](C)CC)[C@@H](C)CC)[C@@H](C)CC)C(C)C)C(C)C` [compound 151] (H-IVLSLD[dV]PIKLK([γGlu-C16 diacid])QILLKQERQKKQREQAEKNKQILEQV-NH2): the midpoint of the response at human CRF2a receptor, the EC50, lay at 0.12 nM. Besides, the “Emax (% I)” value at CFR1R receptor is 53 % I.
